Data published in patent US20230146795A1, “ENHANCEMENT OF ANTI-TUMOR ACTIVITY OF SHP2 INHIBITOR PYRIMIDINONE IN COMBINATION WITH NOVEL CANCER MEDICINES IN CANCERS” (TAIHO PHARMACEUTICAL CO., LTD., priority 2020, published 2023).

Assays:
Format in all cases: cell-based
NCI-H358 = assay: Anti-proliferation assay (CellTiter-Glo 2.0), combination index, NCI-H358
Summary of the method: (§1)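 Cells were seeded at 500 cells/well in medium with 10% FBS and exposed to agents at 8 concentrations including 0 nM, for 3 days at 37° C under 5% CO2. Survival was read by CellTiter-Glo 2.0 luminescence, and combination index was determined at each combined concentration.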

MKN45 = assay: Anti-proliferation assay (CellTiter-Glo 2.0), combination index, MKN45; details: molar ratio 1:27
Experimental: (§2) Cell lines were obtained from ATCC or Health Science Research Resources Bank.
(§3) Each cell lines were collected by ordinary method, then suspended in indicated medium containing 10% fetal bovine serum in table 3. The number of cells seeded per well was set to 500 cells/20 μL. […] The concentration of each anti-cancer reagents set to 8 concentrations including 0 nM. After adding the medicine to the cells, the cells were further incubated at 37° C. for 3 days under 5% CO2. Cell survival rates were calculated by adding 20 μL of CellTiter-Glo(registered trademark) 2. 0 (Promega) solution to each well, incubating the cells at room temperature for 10 minutes, and then measuring the chemiluminescence intensity of each well using a plate reader (ARVO).
(§4) A combination index (CI) value at each combined concentration of the medicines was determined.

NCI-H23 = assay: Anti-proliferation assay (CellTiter-Glo 2.0), combination index, NCI-H23
Experimental: as §2, §3, §4

MV-4-11 = assay: Anti-proliferation assay (CellTiter-Glo 2.0), combination index, MV-4-11
Experimental: as §2
(§5) 384 well culture plate (781086, Greiner Bio-One International) was used for cell survival rate measurement assay. Each cell lines were collected by ordinary method, then suspended in indicated medium containing 10% fetal bovine serum in table 3. The number of cells seeded per well was set to 500 cells/20 μL. After incubation at 37° C. for 24 hours under 5% CO2, Compound 1 and additional compound having an antitumor effect or a vehicle (DMSO) was added to each well by using D300e Digital Dispenser (Tecan). The concentration of Compound 1 was set to 10 concentrations. The concentration of each anti-cancer reagents set to 8 concentrations including 0 nM. After adding the medicine to the cells, the cells were further incubated at 37° C. for 3 days under 5% CO2. Cell survival rates were calculated by adding 20 μL of CellTiter-Glo(registered trademark) 2. 0 (Promega) solution to each well, incubating the cells at room temperature for 10 minutes, and then measuring the chemiluminescence intensity of each well using a plate reader (ARVO).
as §4

RMG-I = assay: Anti-proliferation assay (CellTiter-Glo 2.0), combination index, RMG-I
Experimental: as §2, §5, §4

RT4 = assay: Anti-proliferation assay (CellTiter-Glo 2.0), combination index, RT4
Summary of the method: as §1

[1] = Compound 1 13.7 nmol/L + Abemaciclib 41.2 nmol/L, molar ratio 1:3
[2] = Compound 1 41.2 nmol/L + Abemaciclib 123 nmol/L, molar ratio 1:3
[3] = Compound 1 123 nmol/L + Abemaciclib 370 nmol/L, molar ratio 1:3
[4] = Compound 1 370 nmol/L + Abemaciclib 1110 nmol/L, molar ratio 1:3
[5] = Compound 1 1110 nmol/L + Abemaciclib 3330 nmol/L, molar ratio 1:3
[6] = Compound 1 3330 nmol/L + Abemaciclib 10000 nmol/L, molar ratio 1:3
[7] = Compound 1 4.57 nmol/L + Abemaciclib 123 nmol/L
[8] = Compound 1 41.2 nmol/L + Abemaciclib 1110 nmol/L
[9] = Compound 1 123 nmol/L + Abemaciclib 3330 nmol/L
[10] = Compound 1 4.57 nmol/L + Abemaciclib 123 nmol/L, molar ratio 1:27
[11] = Compound 1 13.7 nmol/L + Abemaciclib 370 nmol/L, molar ratio 1:27
[12] = Compound 1 41.2 nmol/L + Abemaciclib 1110 nmol/L, molar ratio 1:27
[13] = Compound 1 123 nmol/L + Abemaciclib 3330 nmol/L, molar ratio 1:27
[14] = combination effect, Compound 1 + Abemaciclib, molar ratio 1:27
[15] = Compound 1 1.52 nmol/L + Abemaciclib 41.2 nmol/L, molar ratio 1:27
[16] = Compound 1 41.2 + combination drug 41.2 nmol/L (1:1)
[17] = Compound 1 123 + combination drug 123 nmol/L (1:1)
[18] = Compound 1 370 + combination drug 370 nmol/L (1:1)
[19] = Compound 1 1110 + combination drug 1110 nmol/L (1:1)
[20] = Compound 1 3330 + combination drug 3330 nmol/L (1:1)
[21] = Compound 1 123 + combination drug 370 nmol/L (1:3)
[22] = Compound 1 370 + combination drug 1110 nmol/L (1:3)
[23] = Compound 1 1110 + combination drug 3330 nmol/L (1:3)
[24] = Compound 1 3330 + combination drug 10000 nmol/L (1:3)
[25] = Compound 1 123 + combination drug 10000 nmol/L (1:81)
[26] = Compound 1 41.2 + combination drug 111 nmol/L (1:2.7)
[27] = Compound 1 123 + combination drug 333 nmol/L (1:2.7)
[28] = Compound 1 370 + combination drug 1000 nmol/L (1:2.7)
[29] = Compound 1 1110 + combination drug 3000 nmol/L (1:2.7)
[30] = Compound 1 4.57 + combination drug 111 nmol/L (1:24)
[31] = Compound 1 13.7 + combination drug 333 nmol/L (1:24)
[32] = Compound 1 41.2 + combination drug 1000 nmol/L (1:24)
[33] = Compound 1 1.52 + combination drug 4.12 nmol/L (1:2.7)
[34] = Compound 1 13.7 + combination drug 37.0 nmol/L (1:2.7)
[35] = Compound 1 13.7 + combination drug 111 nmol/L (1:8.1)
[36] = Compound 1 41.2 + combination drug 333 nmol/L (1:8.1)
[37] = Compound 1 123 + combination drug 1000 nmol/L (1:8.1)

Structure (SMILES): CCN1CCN(Cc2ccc(Nc3ncc(F)c(-c4cc(F)c5nc(C)n(C(C)C)c5c4)n3)nc2)CC1 [Abemaciclib]
- CI (NCI-H358; [1]): 0.638
- Fa (NCI-H358; [1]): 0.1857
- CI (NCI-H358; [2]): 0.337
- Fa (NCI-H358; [2]): 0.3529
- CI (NCI-H358; [3]): 0.187
- Fa (NCI-H358; [3]): 0.5769
- CI (NCI-H358; [4]): 0.189
- Fa (NCI-H358; [4]): 0.7183
- CI (NCI-H358; [5]): 0.455
- Fa (NCI-H358; [5]): 0.7441
- CI (NCI-H358; [6]): 0.025
- Fa (NCI-H358; [6]): 0.9724
- CI (MKN45; [7]): 0.665
- Fa (MKN45; [7]): 0.1096
- CI (MKN45; [8]): 0.647
- Fa (MKN45; [8]): 0.5496
- CI (MKN45; [9]): 0.698
- Fa (MKN45; [9]): 0.7785
- Description (MKN45; combination effect, Compound 1 + Abemaciclib): Synergy (0.3-0.7)
- CI (NCI-H23; [4]): 0.292
- Fa (NCI-H23; [4]): 0.3181
- CI (NCI-H23; [5]): 0.420
- Fa (NCI-H23; [5]): 0.5212
- CI (NCI-H23; [6]): 0.031
- Fa (NCI-H23; [6]): 0.9964
- CI (MV-4-11; [10]): 0.592
- Fa (MV-4-11; [10]): 0.5416
- CI (MV-4-11; [11]): 0.494
- Fa (MV-4-11; [11]): 0.8419
- CI (MV-4-11; [12]): 0.654
- Fa (MV-4-11; [12]): 0.9407
- CI (MV-4-11; [13]): 0.951
- Fa (MV-4-11; [13]): 0.9781
- Description (MV-4-11; [14]): Synergy (0.3-0.7)
- CI (RMG-I; [15]): 0.724
- Fa (RMG-I; [15]): 0.1493
- CI (RMG-I; [10]): 0.606
- Fa (RMG-I; [10]): 0.2479
- CI (RMG-I; [11]): 0.357
- Fa (RMG-I; [11]): 0.4570
- CI (RMG-I; [12]): 0.455
- Fa (RMG-I; [12]): 0.5937
- CI (RMG-I; [13]): 0.830
- Fa (RMG-I; [13]): 0.6711
- Description (RMG-I; [14]): Synergy (0.3-0.7)

Structure (SMILES): CN(C)C/C=C/C(=O)Nc1cc2c(Nc3ccc(F)c(Cl)c3)ncnc2cc1O[C@H]1CCOC1 [Afatinib]
- CI (NCI-H358; [16]): 0.143
- Fa (NCI-H358; [16]): 0.4605
- CI (NCI-H358; [17]): 0.264
- Fa (NCI-H358; [17]): 0.5395
- CI (NCI-H358; [18]): 0.426
- Fa (NCI-H358; [18]): 0.6382
- CI (NCI-H358; [19]): 0.686
- Fa (NCI-H358; [19]): 0.7270
- CI (NCI-H358; [20]): 0.526
- Fa (NCI-H358; [20]): 0.8696
- CI (NCI-H23; [21]): 0.776
- Fa (NCI-H23; [21]): 0.1325
- CI (NCI-H23; [22]): 0.397
- Fa (NCI-H23; [22]): 0.3961
- CI (NCI-H23; [23]): 0.400
- Fa (NCI-H23; [23]): 0.8058
- CI (NCI-H23; [24]): 0.471
- Fa (NCI-H23; [24]): 0.9563
- Description (combinatory effect by CI) (NCI-H23; Compound 1:combination drug molar ratio 1:3): Synergy (0.3-0.7)
- CI (RT4; [25]): 0.471
- Fa (RT4; [25]): 0.9986
- Description (combinatory effect by CI) (RT4; Compound 1:combination drug molar ratio 1:81): Synergy (0.3-0.7)
- Fa (MV-4-11; Compound 1 13.7 + combination drug 370 nmol/L (1:27)): 0.6791
- Fa (MV-4-11; Compound 1 41.2 + combination drug 1110 nmol/L (1:27)): 0.9244

Structure (SMILES): COc1cc(N2CCC(N3CCN(C)CC3)CC2)ccc1Nc1ncc(Cl)c(Nc2ccccc2P(C)(C)=O)n1 [Brigatinib]
- CI (NCI-H358; [26]): 0.885
- Fa (NCI-H358; [26]): 0.3039
- CI (NCI-H358; [27]): 0.293
- Fa (NCI-H358; [27]): 0.6017
- CI (NCI-H358; [28]): 0.506
- Fa (NCI-H358; [28]): 0.7788
- CI (NCI-H358; [29]): 0.871
- Fa (NCI-H358; [29]): 0.9063
- CI (NCI-H23; [26]): 0.689
- Fa (NCI-H23; [26]): 0.0998
- CI (NCI-H23; [27]): 0.353
- Fa (NCI-H23; [27]): 0.2711
- CI (NCI-H23; [28]): 0.447
- Fa (NCI-H23; [28]): 0.5739
- CI (NCI-H23; [29]): 0.614
- Fa (NCI-H23; [29]): 0.8319
- Description (combinatory effect by CI) (NCI-H23; Compound 1:combination drug molar ratio 1:2.7): Synergy (0.3-0.7)
- CI (RT4; [30]): 0.536
- Fa (RT4; [30]): 0.2537
- CI (RT4; [31]): 0.558
- Fa (RT4; [31]): 0.3969
- CI (RT4; [32]): 0.459
- Fa (RT4; [32]): 0.6106
- Description (combinatory effect by CI) (RT4; Compound 1:combination drug molar ratio 1:24): Synergy (0.3-0.7)
- CI (MV-4-11; [33]): 0.844
- Fa (MV-4-11; [33]): 0.3537
- CI (MV-4-11; [34]): 0.430
- Fa (MV-4-11; [34]): 0.8161
- CI (MV-4-11; [26]): 0.286
- Fa (MV-4-11; [26]): 0.9418
- CI (MV-4-11; [27]): 0.503
- Fa (MV-4-11; [27]): 0.9637
- CI (MV-4-11; [28]): 0.933
- Fa (MV-4-11; [28]): 0.9768
- CI (MV-4-11; [29]): 0.966
- Fa (MV-4-11; [29]): 0.9918
- CI (RMG-I; [35]): 0.462
- Fa (RMG-I; [35]): 0.2251
- CI (RMG-I; [36]): 0.493
- Fa (RMG-I; [36]): 0.4905
- CI (RMG-I; [37]): 0.963
- Fa (RMG-I; [37]): 0.6133
- Description (combinatory effect by CI) (RMG-I; Compound 1:combination drug molar ratio 1:8.1): Synergy (0.3-0.7)
